{"source": "patent US20260218197A1", "about": "“EXTRACELLULAR VESICLE SECRETION REDUCING AGENT FOR REDUCING EXTRACELLULAR VESICLE SECRETION, AND USE OF THE SAME” (THEORIA SCIENCE INC., priority 2020, published 2026)", "key": {"lung cancer cells A549": {"test_system": "lung cancer cells A549", "assay": "CD63 immunofluorescence / coimmunostaining (intracellular EV accumulation)", "assay_type": "cell-based, human", "details": "A549, 2.5 μmol/L, 48 hours, serine-deficient medium, compared with NC (DMSO)", "experimental": "(§1) Colorectal cancer cells HCT116 and lung cancer cells A549 were transfected with siRNA (siPSAT1) in the same manner as in the item (2) in Example A1, and EV biogenesis after PSAT1 silencing was examined. For the respective silenced transformants, CD63 and PSAT1 were examined by immunofluorescence.\n(§2) Further, coimmunostaining of the EV marker CD63 and also an early endosome marker EEA1 or a late endosome marker Rab7 was conducted for the PSAT1-silenced transformants. As a result, no overlap was observed between EEA1 and CD63 in either the PSAT1-silenced transformants or the negative control transformants. […] On this account, the CD63 single-positive area was measured based on the intensity. […] This confirmed that EVs had accumulated in the cells.\n(§3) Specifically, the test was performed in the following manner. Colorectal cancer cells HCT116 and lung cancer cells A549 were each seeded in a 6-well plate at 1.5×10^5 cells/well (Day 0), and incubated for 24 hours in a medium (DMEM with 10% FBS, 1×anti-anti medium). After the incubation (Day 1), the above-described medium was removed, and thereafter, a serine-deficient medium and an inhibitor solution were added to the wells. The inhibitor solution was prepared by dissolving NCT-503 in DMSO, and the concentration of the inhibitor per well was set to 2.5 μmol/L. Then, after another 48 hours of incubation (Day 3), the medium in the wells was collected and the cells in the wells were counted. As negative controls (NC), the test was performed in the same manner, except that DMSO was added instead of the inhibitor solution.\n(§4) EVs accumulated in the cells were analyzed in the following manner. Specifically, the collected cells were immunostained, the CD63 single-positive area was measured based on the fluorescence intensity, and the fluorescence intensity measured in the area was divided by the number of nuclei to determine the amount of EVs accumulated in each cell. On the other hand, secreted EVs were collected from the collected medium and then subjected to the NTA. In the NTA, the amount of secreted EVs was determined as a relative value calculated assuming that the amount of the secreted EVs in the negative control was 1."}, "[1]": {"test_system": "colorectal cancer cells HCT116", "assay": "CD63 immunofluorescence / coimmunostaining (intracellular EV accumulation)", "assay_type": "cell-based, human", "details": "HCT116, 2.5 μmol/L, 48 hours, serine-deficient medium, compared with NC (DMSO)", "experimental": "as §1, §2, §3, §4"}, "[2]": {"test_system": "normal epithelial cells in the lung (HBEC)", "assay": "Amount of secreted EVs per cell by ExoScreen in normal cells", "assay_type": "cell-based", "experimental": "(§5) EV detection was performed using an AlphaLISA reagent (Perkin Elmer) composed of AlphaScreen streptavidin-coated donor beads (6760002), AlphaLISA unconjugated acceptor beads (6062011), and an AlphaLISA universal buffer (AL001F), a 96-well half-area white plate (6005560, Perkin Elmer), and a detection device EnSpire Alpha 2300 Mutilabel plate reader (Perkin Elmer). Specifically, the EV detection was performed as follows. Each well of the plate was filled with 5 μL of EVs or 10 μL of CM (cell culture supernatant), 10 μL of a 5 nmol/L biotinylated antibody solution prepared using the above-described buffer, and 10 μL of 50 µg/mL AlphaLISA acceptor bead-conjugated antibody. For detection of CD9/CD9 double-positive EVs, a biotinylated anti-human CD9 antibody and an anti-human CD9 antibody conjugated with AlphaLISA acceptor beads were used. For detection of CD9/CD63 double-positive EVs, a biotinylated anti-human CD9 antibody and an anti-human CD63 antibody conjugated with AlphaLISA acceptor beads were used. For detection of CD63/CD63 double-positive EVs, a biotinylated anti-human CD63 antibody and an anti-human CD63 antibody conjugated with AlphaLISA acceptor beads were used. The plate was incubated at 37° C. for 1 hour, and then, 25 μL of 80 μg/mL AlphaScreen streptavidin-coated donor beads were added thereto. The plate was incubated at 37° C. for another 30 minutes in the dark. Next, luminescence in the wells of the plate was measured using the detection device with the excitation wavelength set to 680 nm and the emission detection wavelength set to 615 nm. The antibodies used were both commercially available products, namely, a mouse monoclonal anti-human CD9 (Clone 12A12) and a CD63 antibody (Clone 8A12) (both available from Cosmo Bio).\n(§6) The present example examined the effect of NCT-503 on normal cells to provide indirect data showing that NCT-503 reduced EV secretion specific to cancer cells. […] Thereafter, the cell viability was determined and also the amount of secreted EVs was measured by the ExoScreen method.\n(§7) Specifically, the test was performed in the following manner. […] Then, the medium in the wells was collected and the cells in the wells were counted. As a control, the same procedures as described above were performed except that DMSO was added instead of the inhibitor solution, and the cells in the wells were counted. Then, the cell viability was calculated assuming that the number of cells in the NCT-free (0 M) medium (i.e., DMSO-containing medium) of the control was a relative value of 1. Also, the amount of secreted EVs was measured by ExoScreen."}, "[3]": {"test_system": "normal epithelial cells in the large intestine (HCoEpiC)", "assay": "Amount of secreted EVs per cell by ExoScreen in normal cells", "assay_type": "cell-based", "experimental": "as §5, §6, §7"}}, "data": [{"smiles": "Cc1cc(C)nc(NC(=S)N2CCN(Cc3ccc(C(F)(F)F)cc3)CC2)c1", "note": "[NCT-503]", "values": [{"measurement": "amount of EVs accumulated in each cell (CD63 single-positive fluorescence intensity / number of nuclei)", "setting": "lung cancer cells A549", "value": "larger"}, {"measurement": "amount of EVs accumulated in each cell (CD63 single-positive fluorescence intensity / number of nuclei)", "setting": "[1]", "value": "larger"}, {"measurement": "difference in amount of secreted EVs, NCT-503-containing medium vs DMSO-containing medium without NCT", "setting": "[2]; normal epithelial cells in the lung, 0.15625 to 2.5 μmol/L", "value": "almost no difference"}, {"measurement": "relative value of the amount of secreted EVs with respect to DMSO-containing medium without NCT (0 µM)", "setting": "[2]; normal epithelium cells in the lung, NCT-503 2.5 mol/L (so in the source), 48 hours, ExoScreen", "value": 1.17}, {"measurement": "difference in amount of secreted EVs, NCT-503-containing medium vs DMSO-containing medium without NCT", "setting": "[3]; normal epithelial cells in the large intestine, 0.15625 to 2.5 μmol/L", "value": "almost no difference"}, {"measurement": "relative value of the amount of secreted EVs with respect to DMSO-containing medium without NCT (0 µM)", "setting": "[3]; normal epithelium cells in the large intestine, NCT-503 2.5 mol/L (so in the source), 48 hours, ExoScreen", "value": 0.98}]}]}
